Data reported in patent US20130310256A1, “HERBICIDAL COMPOSITIONS COMPRISING 4-AMINO-3-CHLORO-5-FLUORO-6-(4-CHLORO-2-FLUORO-3-METHOXYPHENYL) PYRIDINE-2-CARBOXYLIC ACID OR A DERIVATIVE THEREOF AND VLCFA AND LIPID SYNTHESIS INHIBITING HERBICIDES” (DOW AGROSCIENCES LLC, priority 2008, published 2013).

Tests used:
STEME = experiment: Example III: post-emergence foliar-applied weed control in cereal crops, greenhouse; type: in vivo, Stellaria media (L.) Vill.; conditions: 21 DAA
Protocol: (§1) Seeds of the desired test plant species were planted in Sun Gro MetroMix® 306 planting mixture, which typically has a pH of 6.0 to 6.8 and an organic matter content of about 30 percent, in plastic pots with a surface area of 103.2 square centimeters (cm^2). When required to ensure good germination and healthy plants, a fungicide treatment and/or other chemical or physical treatment was applied. The plants were grown for 7-36 days in a greenhouse with an approximate 14 hour photoperiod which was maintained at about 18° C. during the day and 17° C. during the night. Nutrients and water were added on a regular basis and supplemental lighting was provided with overhead metal halide 1000-Watt lamps as necessary. The plants were employed for testing when they reached the second or third true leaf stage.
(§2) Treatments consisted of the benzyl ester of 4-amino-3-chloro-5-fluoro-6-(4-chloro-2-fluoro-3-methoxy-phenyl)pyridine-2-carboxylic acid (Compound A), formulated as an SC (suspension concentrate), and a second cereal herbicide alone and in combination.
(§3) Measured aliquots of the benzyl ester of 4-amino-3-chloro-5-fluoro-6-(4-chloro-2-fluoro-3-methoxy-phenyl)pyridine-2-carboxylic acid (Compound A) were placed in 25 milliliter (mL) glass vials and diluted in a volume of 1.25% (v/v) Agri-dex crop oil concentrated to obtain stock solutions. Compound requirements are based upon a 12 mL application volume at a rate of 187 liters per hectare (L/ha). Spray solutions of the second cereal herbicide and experimental compound mixtures were prepared by adding the stock solutions to the appropriate amount of dilution solution to form 12 mL spray solution with active ingredients in two- and three-way combinations. Formulated compounds were applied to the plant material with an overhead Mandel track sprayer equipped with an 8002E nozzle calibrated to deliver 187 L/ha over an application area of 0.503 square meters (m^2) at a spray height of 18 inches (46 cm) above average plant canopy. Control plants were sprayed in the same manner with the solvent blank.
(§4) The treated plants and control plants were placed in a greenhouse as described above and watered by sub-irrigation to prevent wash-off of the test compounds. After 20-22 days, the condition of the test plants as compared with that of the control plants was determined visually and scored on a scale of 0 to 100 percent where 0 corresponds to no injury and 100 corresponds to complete kill.
(§5) Colby's equation was used to determine the herbicidal effects expected from the mixtures (Colby, S. R. 1967. Calculation of the synergistic and antagonistic response of herbicide combinations. Weeds 15:20-22.).

GALAP = experiment: as above; type: in vivo, Galium aparine L.; conditions: 21 DAA
Protocol: as §1, §2, §3, §4, §5

SASKR = experiment: as above; type: in vivo, Salsola tragus L.; conditions: 21 DAA
Protocol: as §1, §2, §3, §4, §5

PAPRH = experiment: as above; type: in vivo, Papaver rhoeas L.; conditions: 21 DAA
Protocol: as §1, §2, §3, §4, §5

CHEAL = experiment: as above; type: in vivo, Chenopodium album L.; conditions: 21 DAA
Protocol: as §1, §2, §3, §4, §5

SINAR = experiment: as above; type: in vivo, Sinapis arvensis L.; conditions: 21 DAA
Protocol: as §1, §2, §3, §4, §5

KCHSC = experiment: as above; type: in vivo, Kochia scoparia (L.) Schrad.; conditions: 21 DAA
Protocol: as §1, §2, §3, §4, §5

CYPRO = experiment: Example II: in-water applied weed control, transplanted paddy rice, greenhouse; type: in vivo, Cyperus rotundus L. (purple nutsedge); conditions: 20 DAA
Protocol: (§6) Weed seeds or nutlets of the desired test plant species were planted in puddled soil (mud) prepared by mixing a shredded, non-sterilized mineral soil (50.5 percent silt, 25.5 percent clay, and 24 percent sand, with a pH of about 7.6 and an organic matter content of about 2.9 percent) and water at a 1:1 volumetric ratio. The prepared mud was dispensed in 365 mL aliquots into 16-ounce (oz.) non-perforated plastic pots with a surface area of 86.59 square centimeters (cm^2) leaving a headspace of 3 centimeters (cm) in each pot. Mud was allowed to dry overnight prior to planting or transplanting. Rice seeds were planted in Sun Gro MetroMix® 306 planting mixture, which typically has a pH of 6.0 to 6.8 and an organic matter content of about 30 percent, in plastic plug trays. Seedlings at the second or third leaf stage of growth were transplanted into 840 mL of mud contained in 32-oz. non-perforated plastic pots with a surface area of 86.59 cm^2 4 days prior to herbicide application. The paddy was created by filling the headspace of the pots with 2.5 to 3 cm of water. When required to ensure good germination and healthy plants, a fungicide treatment and/or other chemical or physical treatment was applied. The plants were grown for 4-22 days in a greenhouse with an approximate 14 hr photoperiod which was maintained at about 29′C during the day and 26° C. during the night. Nutrients were added as Osmocote® (19:6:12, N:P:K+ minor nutrients) at 2 g per 16-oz. pot and 4 g per 32-oz. pot. Water was added on a regular basis to maintain the paddy flood, and supplemental lighting was provided with overhead metal halide 1000-Watt lamps as necessary. The plants were employed for testing when they reached the first through fourth true leaf stage.
(§7) Treatments consisted of the acid or esters of 4-amino-3-chloro-5-fluoro-6-(4-chloro-2-fluoro-3-methoxy-phenyl)pyridine-2-carboxylic acid (compound A) each formulated as an SC (suspension concentrate) and various herbicidal components alone and in combination. Forms of compound A were applied on an acid equivalent basis.
(§8) The herbicidal components were applied on an active ingredient basis and included very long chain fatty acid (VLCFA) synthesis-inhibiting and fatty acid/lipid synthesis-inhibiting herbicides acetochlor (technical grade material), acetochlor+dichlormid formulateded as Topnotch®, pretilachlor (technical grade material), butachlor formulated as Butachlor EC, fentrazamide formulated as Fentrazamide EC, thiobencarb formulated as Bolero® 8EC, cafenstrole formulated as Himeadow® WP or Lapost® Flowable, benfuresate formulated as Full Shot®, anilofos (technical grade material), mefenacet (technical grade material), molinate (technical grade material), and thenylchlor (technical grade material).
(§9) Treatment requirements for each compound or herbicidal component were calculated based upon the rates being tested, the concentration of active ingredient or acid equivalent in the formulation, an application volume of 2 mL per component per pot, and an application area of 86.59 cm^2 per pot.
(§10) For formulated compounds, a measured amount was placed in an individual 100 or 200 mL glass vial and was dissolved in a volume of 1.25% (v/v) Agri-Dex® crop oil concentrate to obtain application solutions.
(§11) For technical grade compounds, a weighed amount was placed in an individual 100 to 200 mL glass vial and was dissolved in a volume of acetone to obtain concentrated stock solutions. […] The concentrated stock solutions obtained were diluted with an equivalent volume of an aqueous mixture containing 2.5% (v/v) crop oil concentrate so that the final application solutions contained 1.25% (v/v) crop oil concentrate.
(§12) Applications were made by injecting with a pipetter appropriate amounts of the application solutions, individually and sequentially, into the aqueous layer of the paddy. Control plants were treated in the same manner with the solvent blank. […]

DIGSA = experiment: Example I: postemergence foliar-applied weed control, greenhouse; type: in vivo, Digitaria sanguinalis (L.) Scop. (large crabgrass); conditions: 20 DAA; 560 gai/ha
Excerpt: (§13) Seeds or nutlets of the desired test plant species were planted in a soil matrix prepared by mixing a loam or sandy loam soil (e.g., 28.6 percent silt, 18.8 percent clay, and 52.6 percent sand, with a pH of about 5.8 and an organic matter content of about 1.8 percent) and calcareous grit in an 80 to 20 ratio. The soil matrix was contained in plastic pots with a volume of 1 quart and a surface area of 83.6 square centimeters (cm^2). When required to ensure good germination and healthy plants, a fungicide treatment and/or other chemical or physical treatment was applied. The plants were grown for 8-22 days in a greenhouse with an approximate 14 hr photoperiod which was maintained at about 29° C. during the day and 26° C. during the night. Nutrients (Peters Excel® 15-5-15 5-Ca 2-Mg and iron chelate) were applied in the irrigation solution as needed and water was added on a regular basis. Supplemental lighting was provided with overhead metal halide 1000-Watt lamps as necessary. The plants were employed for testing when they reached the first through fourth true leaf stage.
as §7, with “(Compound A),” for “(compound A)”, “concentrate),” for “concentrate)”
(§14) Other herbicidal components were applied on an active ingredient basis and included very long chain fatty acid (VLCFA) synthesis-inhibiting and fatty acid/lipid synthesis-inhibiting herbicides acetochlor (technical grade material), acetochlor+dichlormid formulated as Topnotch®, pretilachlor (technical grade material), butachlor formulated as Butachlor EC, fentrazamide formulated as Fentrazamide EC, thiobencarb formulated as Bolero® 8EC, cafenstrole formulated as Himeadow® WP or Lapost® Flowable, benfuresate formulated as Full Shot®, dimethenamid-P formulated as Outlook®, indanofan (technical grade material), flufenacet formulated as Define® DF, mefenacet (technical grade material), S-metolachlor formulated as Dual® II Magnum, pethoxamid formulated as Successor® 600, and pyroxasulfone (technical grade material).
(§15) Treatment requirements were calculated based upon the rates being tested, the concentration of active ingredient or acid equivalent in the formulation, and a 12 mL application volume at a rate of 187 L/ha.
(§16) For treatments comprised of formulated compounds, measured amounts of compounds were placed individually in 25 mL glass vials and diluted in a volume of 1.25% (v/v) Agri-Dex® crop oil concentrated to obtain 12× stock solutions. […] Application solutions were prepared by adding an appropriate amount of each stock solution (e.g., 1 mL) and diluted to the appropriate final concentrations with the addition of 10 mL of an aqueous mixture of 1.25% (v/v) crop oil concentrate so that the final spray solutions contained 1.25+/−0.05% (v/v) crop oil concentrate.
(§17) For treatments comprised of technical compounds, weighed amounts can be placed individually in 25 mL glass vials and dissolved in a volume of 97:3 v/v acetone/DMSO to obtain 12× stock solutions. […] Application solutions can be prepared by adding an appropriate amount of each stock solution (e.g., 1 mL) and diluted to the appropriate final concentrations with the addition of 10 mL of an aqueous mixture of 1.5% (v/v) crop oil concentrate so that the final spray solutions contain 1.25% (v/v) crop oil concentrate. When technical materials are used, the concentrated stock solutions can be added to the spray solutions so that the final acetone and DMSO concentrations of the application solutions are […], respectively. […]

ECHOR = experiment: Example II: in-water applied weed control, transplanted paddy rice, greenhouse; type: in vivo, Echinochloa oryzoides (Ard.) Fritsch (early watergrass)
Protocol: as §6, §7, §8, §9, §10, §11, §12

ECHCO = experiment: Example I: postemergence foliar-applied weed control, greenhouse; type: in vivo, Echinochloa colona (L.) Link (junglerice); conditions: 20 DAA
Excerpt: as §13
as §7, with “(Compound A),” for “(compound A)”, “concentrate),” for “concentrate)”
as §14, §15, §16, §17

ISCRU = experiment: as above; type: in vivo, Ischaemum rugosum Salisb. (saramollagrass); conditions: 21 DAA
Excerpt: as §13
as §7, with “(Compound A),” for “(compound A)”, “concentrate),” for “concentrate)”
as §14, §15
For treatments comprised of formulated compounds, measured amounts of compounds were placed individually in 25 mL glass vials and diluted in a volume of 1.25% (v/v) Agri-Dex® crop oil concentrated to obtain 12× stock solutions. […]

CYPIR = experiment: as above; type: in vivo, Cyperus iria L. (rice flatsedge); conditions: 20 DAA
Excerpt: as §13
as §7, with “(Compound A),” for “(compound A)”, “concentrate),” for “concentrate)”
as §14, §15, §16, §17

CCCN(CCC)C(=O)SCc1ccccc1 [Prosulfocarb, S-(phenylmethyl) dipropylcarbamothioate]
Visual Weed Control STEME Obs (STEME; 1000 gai/ha): 0%
Visual Weed Control STEME Obs (STEME; 2000 gai/ha): 10%
Visual Weed Control STEME Obs (STEME; 4000 gai/ha): 73%
Visual Weed Control GALAP Obs (GALAP; 1000 gai/ha): 15%
Visual Weed Control GALAP Obs (GALAP; 2000 gai/ha): 40%
Visual Weed Control GALAP Obs (GALAP; 4000 gai/ha): 67%
Visual Weed Control SASKR Obs (SASKR; 1000 gai/ha): 5%
Visual Weed Control SASKR Obs (SASKR; 2000 gai/ha): 5%
Visual Weed Control SASKR Obs (SASKR; 4000 gai/ha): 63%
Visual Weed Control PAPRH Obs (PAPRH; 1000 gai/ha): 5%
Visual Weed Control PAPRH Obs (PAPRH; 2000 gai/ha): 10%
Visual Weed Control PAPRH Obs (PAPRH; 4000 gai/ha): 13%
Visual Weed Control CHEAL Obs (CHEAL; 1000 gai/ha): 10%
Visual Weed Control CHEAL Obs (CHEAL; 2000 gai/ha): 15%
Visual Weed Control SINAR Obs (SINAR; 1000 gai/ha): 13%
Visual Weed Control SINAR Obs (SINAR; 2000 gai/ha): 18%
Visual Weed Control KCHSC Obs (KCHSC; 1000 gai/ha): 10%
Visual Weed Control KCHSC Obs (KCHSC; 2000 gai/ha): 15%
Visual Weed Control KCHSC Obs (KCHSC; 4000 gai/ha): 75%

CCN(CC)C(=O)SCc1ccc(Cl)cc1 [Thiobencarb, S-[(4-chlorophenyl)methyl]N,N-diethylcarbamothioate]
Visual Weed Control CYPRO Obs (CYPRO; 1120 gai/ha): 0%
Visual Weed Control CYPRO Obs (CYPRO; 2240 gai/ha): 0%
Visual Weed Control Obs (DIGSA): 20%
Visual Weed Control (%) - 20 DAA ECHOR Obs (ECHOR; 1120 gai/ha): 60%
pest or weed control at 1120 g/ha (ECHOR; Echinochloa oryzoides, 480 h, 1120 gai/ha, 20 DAA, read-out: Visual Weed Control ECHOR Obs): 60%
pest or weed control at 2240 g/ha (ECHOR; Echinochloa oryzoides, 480 h, 2240 gai/ha, 20 DAA, read-out: Visual Weed Control ECHOR Obs): 90%
Visual Weed Control Obs (ECHCO; 560 gai/ha): 45%
Visual Weed Control Obs (ECHCO; 1120 gai/ha): 40%
Visual Weed Control Obs (ISCRU; 1120 gai/ha): 0%
Visual Weed Control Obs (ISCRU; 2240 gai/ha): 0%
Visual Weed Control Obs (CYPIR; 560 gai/ha): 0%
Visual Weed Control Obs (CYPIR; 1120 gai/ha): 0%
Visual Weed Control Obs (CYPIR; 2240 gai/ha): 0%
